In ChEMBL document CHEMBL1129447 (J Med Chem, 1996):
pEC50, pKi: −log10 of the molar value.

What was measured:
[1] = target: T1, Adenosine receptor A1 (Rattus norvegicus, UniProt P25099); experiment: Adenosine A1 receptor mediated negative chronotropic activity in spontaneously beating rat atria; format: functional
T1 sequence (P25099 whole entry): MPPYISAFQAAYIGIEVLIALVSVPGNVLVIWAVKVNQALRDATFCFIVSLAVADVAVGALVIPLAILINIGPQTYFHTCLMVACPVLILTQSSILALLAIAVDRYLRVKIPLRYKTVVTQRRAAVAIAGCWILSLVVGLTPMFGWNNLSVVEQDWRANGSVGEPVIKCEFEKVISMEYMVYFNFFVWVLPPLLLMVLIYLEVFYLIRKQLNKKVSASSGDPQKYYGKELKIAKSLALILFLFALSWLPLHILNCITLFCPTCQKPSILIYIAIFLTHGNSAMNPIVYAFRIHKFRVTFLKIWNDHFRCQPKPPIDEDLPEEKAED

[2] = target: T2, Adenosine receptor A2a (Rattus norvegicus, UniProt P30543)
T2 sequence (P30543 whole entry): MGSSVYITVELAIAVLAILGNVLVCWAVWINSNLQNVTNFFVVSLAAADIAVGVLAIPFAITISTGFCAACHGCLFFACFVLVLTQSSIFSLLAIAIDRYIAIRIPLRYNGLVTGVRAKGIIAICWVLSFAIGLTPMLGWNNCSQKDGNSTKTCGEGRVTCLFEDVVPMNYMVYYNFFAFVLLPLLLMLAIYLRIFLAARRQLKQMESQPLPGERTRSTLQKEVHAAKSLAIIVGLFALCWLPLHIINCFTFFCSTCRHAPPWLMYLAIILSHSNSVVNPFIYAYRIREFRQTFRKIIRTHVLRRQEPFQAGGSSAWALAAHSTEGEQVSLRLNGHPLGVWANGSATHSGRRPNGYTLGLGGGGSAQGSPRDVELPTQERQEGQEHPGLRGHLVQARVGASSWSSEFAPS
Description: Vasorelaxation as Adenosine A2A receptor activity in rat aorta

[3] = target: T2, Adenosine receptor A2a; remark: listed apart in the source
Description: Displacement of [3H]-CGS- 51680 from Adenosine A2A receptor of rat striatum.

[4] = target: T1, Adenosine receptor A1
Description: Displacement of [3H]CHA from Adenosine A1 receptor of rat brain

SMILES	pEC50 [1]	pEC50 [2]	pKi [3]	pKi [4]
CCNC(=O)[C@H]1O[C@@H](n2cnc3c(N)nc(C#CCCCc4ccccc4)nc32)[C@H](O)[C@@H]1O	< 9.00	–	–	–
CCNC(=O)[C@H]1O[C@@H](n2cnc3c(N)nc(/C=C\CCCc4ccccc4)nc32)[C@H](O)[C@@H]1O	< 9.00	< 9.00	7.29	< 9.00
CCNC(=O)[C@H]1O[C@@H](n2cnc3c(N)nc(/C=C/c4ccccc4)nc32)[C@H](O)[C@@H]1O	6.38	6.71	6.63	6.93
CCCC/C=C\c1nc(N)c2ncn([C@@H]3O[C@H](CO)[C@@H](O)[C@H]3O)c2n1	< 9.00	–	6.12	6.21
CCCC/C=C/c1nc(N)c2ncn([C@@H]3O[C@H](C(=O)NCC)[C@@H](O)[C@H]3O)c2n1	< 9.00	6.23	8.80	6.60
CCCCCCc1nc(N)c2ncn([C@@H]3O[C@H](C(=O)NCC)[C@@H](O)[C@H]3O)c2n1	< 9.00	9.00	6.87	< 9.00
CCNC(=O)[C@H]1O[C@@H](n2cnc3c(N)nc(C#Cc4ccccc4)nc32)[C@H](O)[C@@H]1O	< 9.00	< 9.00	–	–
CCNC(=O)[C@H]1O[C@@H](n2cnc3c(N)nc(/C=C/CCCc4ccccc4)nc32)[C@H](O)[C@@H]1O	< 9.00	6.24	8.46	5.99
CCCCC#Cc1nc(N)c2ncn([C@@H]3O[C@H](CO)[C@@H](O)[C@H]3O)c2n1	< 9.00	–	–	7.01
CCCCC#Cc1nc(N)c2ncn([C@@H]3O[C@H](C(=O)NCC)[C@@H](O)[C@H]3O)c2n1	< 9.00	–	–	–
CCCCCCc1nc(N)c2ncn(C3O[C@H](CO)[C@@H](O)[C@H]3O)c2n1 (stereo partly drawn)	< 9.00	–	< 9.00	< 9.00
CCCC/C=C\c1nc(N)c2ncn(C3O[C@H](C(=O)NCC)[C@@H](O)[C@H]3O)c2n1 (stereo partly drawn)	< 9.00	6.17	7.15	6.02
CCCC/C=C/c1nc(N)c2ncn([C@@H]3O[C@H](CO)[C@@H](O)[C@H]3O)c2n1	–	–	7.85	6.48
